The values below come from patent US12338255B2, “Bicyclic substituted sulfonylurea compounds as inhibitors of interleukin-1 activity” (Viva Star Biosciences (Suzhou) Co., Ltd., priority 2022, dated 2025).

A value given as a limit tells only on which side of the number the result lay.

The assay concerns the target T1, NLRP3 (Homo sapiens, UniProt Q96P20).
T1 construct: Seed THP-1 cells (5.56*10^5 cells/mL) containing 1.0 ug/mL LPS; endogenous in cells; host or cells: THP-1 cells
The assay can be described thus: THP-1 LPS/nigericin IL1β release (pyroptosis assay), HTRF. Format: cell-based. As to conditions: NLRP3 inhibitory activity; THP-1 cells, 1.0 ug/mL LPS, compound 3 hrs, nigericin 5 uM 1 hr, IL1β in supernatant. As to the method: The following method was used for compound screening. • 1. Seed THP-1 cells (5.56*10^5 cells/mL) containing 1.0 ug/mL LPS (SIGMA, L6529) in 45 uL RPMI 1640 medium (without FBS) into 384-well plate (Thermo Scientific, 164688). • 2. Add 5 uL compound (10 doses starting from 5 uM, 1:3 dilution) or vehicle (0.05% DMSO in medium) to the appropriate wells. • 3. Centrifuge the plates at 1000 rpm for 2 mins and incubate for 3 hrs at 37° C., 5% CO2. • 4. Add 5 uL nigericin (MEC, HY-100381) (final conc. 5 uM) to sample wells and positive control wells; add 5 uL RPMI 1640 medium to negative control wells. • 5. Centrifuge plates at 1000 rpm for 2 mins and incubate for 1 hr at 37° C., 5% CO2. • 6. At the end of the incubation period, centrifuge plates at 1000 rpm for 6 mins and transfer 8 uL supernatant into 384-well assay plates (PerkinElmer, 6008280). • 7. Add 8 ul RPMI 1640 medium into each well and spin down for 10 secs. • 8. Prepare the standard solutions and pre-mixed IL1β antibodie solution of Human IL1β kits (PerkinElmer, 62HIL1BPEH) according to the instruction. • 9. Add 16 uL standard solutions into clear wells of 384-well assay plates. • 10. Add 4 uL pre-mixed IL1β antibodie solution to all wells including sample wells, positive control wells, negative control wells and standard solutions wells. • 11. Seal the plates, spin down for 10 secs, incubation for overnight at RT and read on an HTRF® compatible reader (BMG LABTECH, PHERAstar FS). • 12. The concentrations of IL1β for treated wells are calculated by the standard curve. • 13. The IC50 data is fitted to a non-liner regression equation (log inhibitor vs. response—Variable slope four parameters)).

T1 sequence (Q96P20 whole entry): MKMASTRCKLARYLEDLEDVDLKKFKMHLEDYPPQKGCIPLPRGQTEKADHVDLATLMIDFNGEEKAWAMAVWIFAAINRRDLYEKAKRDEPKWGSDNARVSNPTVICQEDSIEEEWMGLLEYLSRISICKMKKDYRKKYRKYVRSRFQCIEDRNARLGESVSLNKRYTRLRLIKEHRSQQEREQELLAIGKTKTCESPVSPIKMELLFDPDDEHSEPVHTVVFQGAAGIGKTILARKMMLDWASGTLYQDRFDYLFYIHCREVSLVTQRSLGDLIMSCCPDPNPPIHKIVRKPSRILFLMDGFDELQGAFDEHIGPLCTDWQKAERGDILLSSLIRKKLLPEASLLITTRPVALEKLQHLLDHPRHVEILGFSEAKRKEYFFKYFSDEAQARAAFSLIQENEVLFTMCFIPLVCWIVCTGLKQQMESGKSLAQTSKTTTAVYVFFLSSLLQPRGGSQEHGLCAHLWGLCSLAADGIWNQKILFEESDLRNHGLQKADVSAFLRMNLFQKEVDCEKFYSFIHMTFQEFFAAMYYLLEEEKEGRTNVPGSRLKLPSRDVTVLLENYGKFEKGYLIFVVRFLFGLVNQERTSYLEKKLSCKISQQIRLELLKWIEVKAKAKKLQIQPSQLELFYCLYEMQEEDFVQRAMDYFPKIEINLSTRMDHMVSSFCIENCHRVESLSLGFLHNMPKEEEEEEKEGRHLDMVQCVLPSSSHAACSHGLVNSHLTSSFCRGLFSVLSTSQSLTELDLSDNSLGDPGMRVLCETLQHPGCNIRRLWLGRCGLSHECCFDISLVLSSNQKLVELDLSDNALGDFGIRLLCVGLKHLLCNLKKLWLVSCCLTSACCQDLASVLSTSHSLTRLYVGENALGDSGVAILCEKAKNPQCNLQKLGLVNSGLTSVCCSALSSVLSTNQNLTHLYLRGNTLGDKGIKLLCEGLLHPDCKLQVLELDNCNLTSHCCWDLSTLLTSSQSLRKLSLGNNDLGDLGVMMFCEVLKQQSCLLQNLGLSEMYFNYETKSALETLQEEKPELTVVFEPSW

Consider `CO[C@@H]1COc2c(S(=O)(=O)NC(=O)Nc3c4c(cc(C)c3-c3ccc5nccn5c3)CCC4)cnn2C1` [Example 30, (S)-N-((5-(imidazo[1,2-a]pyridin-6-yl)-6-methyl-2,3-dihydro-1H-inden-4-yl)carbamoyl)-6-methoxy-6,7-dihydro-5H-pyrazolo[5,1-b][1,3]oxazine-3-sulfonamide], for which the IC50 – broadly, the point on the concentration scale where inhibition reaches its midpoint – was at most 100 nM.
